# Target: Ba/F3 V617F cells (Homo sapiens, UniProt O60674, V617F, cells depend on it)
# Assay: Proliferation assay (Cell Titer-Glo, 72 h) utilizing Ba/F3 V617F cells
# Assay type: cell-based, mouse
# Settings: Ba/F3 V617F cells, proliferation, level of activity given as class symbol, read-out: IC50 (the source's name)
# Experimental: Ba/F3 V617F cells are maintained and plated in RPMI with 10% FBS. Plating density for these cells is 1×10^5 cells/mL.
# The cells were resuspended in a corresponding medium at a required cell density (see above). 100μ of cell suspension was added to each well of a flat bottom 96 well white plate. The compound was serially diluted in DMSO from 5 mM in 3-fold dilutions, and then diluted 1:250 in the RPMI 1640 medium containing 5% FBS and pen/strep. 100 μL of resulting 2× compound solution was added per well in duplicate and the cells were allowed to proliferate for 72 hours at 37° C.
# Proliferation was measured using Cell Titer-Glo. The substrate was thawed and allowed to come to ambient temperature. After removal of top 100 μL of medium from each well, 100 μL of the premixed Cell Titer-Glo reagent was added to each well. The plates were mixed on an orbital shaker for three minutes to induce lysis and incubated at ambient temperature for an additional five minutes to allow the signal to equilibrate. The Luminescence was read on the Wallac Plate Reader.
# The results of the ability of the compounds of the invention to inhibit JAK2 activity, when tested in the above assay utilizing Ba/F3 V617F cells, are shown in the following Tables 2-3 wherein the level of activity (i.e., the IC50) for each compound is indicated in Tables 2-3. The compound numbers in Tables 2-3 refers to the compounds disclosed herein as being prepared by the methods disclosed herein: […]
# Sequence of Ba/F3 V617F cells (O60674 whole entry V617F): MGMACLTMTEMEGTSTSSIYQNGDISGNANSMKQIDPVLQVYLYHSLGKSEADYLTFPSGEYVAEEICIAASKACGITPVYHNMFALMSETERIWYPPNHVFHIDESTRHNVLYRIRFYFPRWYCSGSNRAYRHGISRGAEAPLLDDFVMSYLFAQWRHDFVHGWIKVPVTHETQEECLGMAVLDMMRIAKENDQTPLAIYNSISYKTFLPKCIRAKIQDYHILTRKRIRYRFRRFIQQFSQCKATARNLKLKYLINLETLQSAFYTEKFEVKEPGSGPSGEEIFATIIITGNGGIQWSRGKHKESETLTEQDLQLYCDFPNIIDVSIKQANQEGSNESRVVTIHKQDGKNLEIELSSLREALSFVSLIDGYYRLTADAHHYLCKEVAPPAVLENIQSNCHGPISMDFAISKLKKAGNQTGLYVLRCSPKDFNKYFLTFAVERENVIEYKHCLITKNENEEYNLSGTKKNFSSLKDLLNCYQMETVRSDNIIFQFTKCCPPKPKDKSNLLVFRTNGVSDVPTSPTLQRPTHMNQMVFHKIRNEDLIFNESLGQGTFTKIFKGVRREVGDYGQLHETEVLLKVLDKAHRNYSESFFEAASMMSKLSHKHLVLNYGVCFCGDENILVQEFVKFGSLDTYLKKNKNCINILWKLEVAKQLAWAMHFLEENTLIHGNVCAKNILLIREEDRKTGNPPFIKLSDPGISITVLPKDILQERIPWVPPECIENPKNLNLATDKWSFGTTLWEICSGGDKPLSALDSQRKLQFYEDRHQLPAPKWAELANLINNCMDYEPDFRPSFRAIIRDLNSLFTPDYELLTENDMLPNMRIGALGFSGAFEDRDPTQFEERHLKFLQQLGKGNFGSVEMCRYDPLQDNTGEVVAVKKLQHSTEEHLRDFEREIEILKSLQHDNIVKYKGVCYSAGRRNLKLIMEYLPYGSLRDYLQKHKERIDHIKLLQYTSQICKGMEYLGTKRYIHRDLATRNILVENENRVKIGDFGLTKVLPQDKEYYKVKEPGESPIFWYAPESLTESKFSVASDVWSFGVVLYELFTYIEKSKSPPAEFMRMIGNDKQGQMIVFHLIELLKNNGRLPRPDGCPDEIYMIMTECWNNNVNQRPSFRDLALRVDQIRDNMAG
row,SMILES,GI50
1,Cc1cc(Nc2nccc(-c3ccc(N4C[C@@H](C)O[C@@H](C)C4)nc3)n2)ccc1N1C[C@@H]2C[C@H]1CO2 (relative stereo) [compound 201],< 1 µM

# Same assay, conditions: Ba/F3 V617F cells, proliferation, level of activity to inhibit JAK2, read-out: IC50 (the source's name)
row,SMILES,GI50
1,"Cc1cc(Nc2nccc(-c3ccc(N(C)C)nc3)n2)ccc1N1C[C@@H]2C[C@H]1CN2C [compound 1, 4-(6-(N,N-dimethylamino)pyridin-3-yl)-N-(3-methyl-4-((1S,4S)-5-methyl-2,5-diazabicyclo[2.2.1]heptan-2-yl)phenyl)pyrimidin-2-amine]",< 1 µM
2,"Cc1cc(Nc2ncc(C)c(-c3ccc(N(C)C)nc3)n2)ccc1N1C[C@@H]2C[C@H]1CN2C [compound 2, 4-(6-(N,N-dimethylamino)pyridin-3-yl)-5-methyl-N-(3-methyl-4-((1S,4S)-5-methyl-2,5-diazabicyclo[2.2.1]heptan-2-yl)phenyl)pyrimidin-2-amine]",< 1 µM
3,"Cc1cc(Nc2ncc(C(F)(F)F)c(-c3ccc(N(C)C)nc3)n2)ccc1N1C[C@@H]2C[C@H]1CN2C [compound 3, 4-(6-(N,N-dimethylamino)pyridin-3-yl)-5-trifluoromethyl-N-(3-methyl-4-((1S,4S)-5-methyl-2,5-diazabicyclo[2.2.1]heptan-2-yl)phenyl)pyrimidin-2-amine]",1 to 10 µM
4,"Cc1cc(Nc2ncc(F)c(-c3ccc(N(C)C)nc3)n2)ccc1N1C[C@@H]2C[C@H]1CN2C [compound 4, 4-(6-(N,N-dimethylamino)pyridin-3-yl)-5-fluoro-N-(3-methyl-4-((1S,4S)-5-methyl-2,5-diazabicyclo[2.2.1]heptan-2-yl)phenyl)pyrimidin-2-amine]",< 1 µM
5,"CN(C)c1ccc(-c2nc(Nc3ccc(N4C[C@@H]5C[C@H]4CN5C)c(F)c3)ncc2F)cn1 [compound 5, 4-(6-(N,N-dimethylamino)pyridin-3-yl)-5-fluoro-N-(3-fluoro-4-((1S,4S)-5-methyl-2,5-diazabicyclo[2.2.1]heptan-2-yl)phenyl)pyrimidin-2-amine]",1 to 10 µM
6,"Cc1cnc(Nc2ccc(N3C[C@@H]4C[C@H]3CN4C)c(F)c2)nc1-c1ccc(N(C)C)nc1 [compound 6, 4-(6-(N,N-dimethylamino)pyridin-3-yl)-5-methyl-N-(3-fluoro-4-((1S,4S)-5-methyl-2,5-diazabicyclo[2.2.1]heptan-2-yl)phenyl)pyrimidin-2-amine]",< 1 µM
7,"CN(C)c1ccc(-c2ccnc(Nc3ccc(N4C[C@@H]5C[C@H]4CN5C)c(F)c3)n2)cn1 [compound 7, 4-(6-(N,N-dimethylamino)pyridin-3-yl)-N-(3-fluoro-4-((1S,4S)-5-methyl-2,5-diazabicyclo[2.2.1]heptan-2-yl)phenyl)pyrimidin-2-amine]",< 1 µM
8,"Cc1cc(Nc2nccc(-c3cnc4c(c3)OCCN4C)n2)ccc1N1C[C@@H]2C[C@H]1CN2C [compound 8, 4-(4-methyl-3,4-dihydro-2H-pyrido[3,2-b][1,4]oxazin-7-yl)-N-(3-methyl-4-((1S,4S)-5-methyl-2,5-diazabicyclo[2.2.1]heptan-2-yl)phenyl)pyrimidin-2-amine]",< 1 µM
9,"CN1CCOc2cc(-c3ccnc(Nc4ccc(N5C[C@@H]6C[C@H]5CN6C)c(F)c4)n3)cnc21 [compound 9, 4-(4-methyl-3,4-dihydro-2H-pyrido[3,2-b][1,4]oxazin-7-yl)-N-(3-fluoro-4-((1S,4S)-5-methyl-2,5-diazabicyclo[2.2.1]heptan-2-yl)phenyl)pyrimidin-2-amine]",< 1 µM
10,"Cc1cc(Nc2nccc(-c3ccc(N4CCOCC4)nc3)n2)ccc1N1C[C@@H]2C[C@H]1CN2C [compound 10, 4-(6-(morpholin-4-yl)pyridin-3-yl)-N-(3-methyl-4-((1S,4S)-5-methyl-2,5-diazabicyclo[2.2.1]heptan-2-yl)phenyl)pyrimidin-2-amine]",< 1 µM
11,"Cc1cc(Nc2nccc(-c3ccc(N4C[C@@H]5C[C@H]4CN5C)nc3)n2)ccc1N1CCN(C)CC1 [compound 12, 4-(6-((1S,4S)-5-methyl-2,5-diazabicyclo-[2.2.1]-heptan-2-yl)pyridin-3-yl)-N-(3-methyl-4-(4-methyl-piperazin-1-yl)phenyl)-pyrimidin-2-amine]",1 to 10 µM
12,"Cc1cc(Nc2nccc(-c3ccc(N4C[C@@H]5C[C@H]4CN5c4ccc(F)cc4)nc3)n2)ccc1N1CCN(C)CC1 [compound 13, 4-(6-((1S,4S)-5-(4-fluorophenyl)-2,5-diazabicyclo-[2.2.1]-heptan-2-yl)pyridin-3-yl)-N-(3-methyl-4-(4-methyl-piperazin-1-yl)phenyl)-pyrimidin-2-amine]",< 1 µM
13,"Cc1cc(Nc2nccc(-c3ccc(N(C)C)cc3)n2)ccc1N1C[C@@H]2C[C@H]1CN2C [compound 14, 4-(4-(N,N-dimethylamino)phenyl)-N-(3-methyl-4-((1S,4S)-5-methyl-2,5-diazabicyclo[2.2.1]heptan-2-yl)phenyl)pyrimidin-2-amine]",< 1 µM
14,"CN(C)c1ccc(-c2ccnc(Nc3ccc(N4C[C@@H]5C[C@H]4CN5C)c(F)c3)n2)cc1 [compound 15, 4-(4-(N,N-dimethylamino)phenyl)-N-(3-fluoro-4-((1S,4S)-5-methyl-2,5-diazabicyclo[2.2.1]heptan-2-yl)phenyl)pyrimidin-2-amine]",1 to 10 µM
15,"CC(=O)N1CCN(c2ccc(-c3ccnc(Nc4ccc(N5C[C@@H]6C[C@H]5CN6C)c(F)c4)n3)cn2)CC1 [compound 16, 4-(6-(4-acetylpiperazin-1-yl)pyridin-3-yl)-N-(3-fluoro-4-((1S,4S)-5-methyl-2,5-diazabicyclo[2.2.1]heptan-2-yl)phenyl)pyrimidin-2-amine]",< 1 µM
16,"CN1C[C@@H]2C[C@H]1CN2c1ccc(Nc2nccc(-c3cnc4c(c3)OC(C)(C)C(=O)N4)n2)cc1F [compound 19, 4-(2,2-dimethyl-3-oxo-3,4-dihydro-2H-pyrido[3,2-b][1,4]oxazin-7-yl)-N-(3-fluoro-4-((1S,4S)-5-methyl-2,5-diazabicyclo[2.2.1]heptan-2-yl)phenyl)pyrimidin-2-amine]",< 1 µM
17,"Cc1cc(Nc2nccc(-c3ccc4cc[nH]c4c3)n2)ccc1N1C[C@@H]2C[C@H]1CN2C [compound 21, 4-(1H-indol-6-yl)-N-(3-methyl-4-((1S,4S)-5-methyl-2,5-diazabicyclo[2.2.1]heptan-2-yl)phenyl)pyrimidin-2-amine]",< 1 µM
18,"Cc1cc(Nc2nccc(-c3cnc4[nH]ccc4c3)n2)ccc1N1C[C@@H]2C[C@H]1CN2C [compound 22, 4-(1H-pyrrolo[2,3-b]pyridin-5-yl)-N-(3-methyl-4-((1S,4S)-5-methyl-2,5-diazabicyclo[2.2.1]heptan-2-yl)phenyl)pyrimidin-2-amine]",< 1 µM
19,"CN1C[C@@H]2C[C@H]1CN2c1ccc(Nc2nccc(-c3cnc4[nH]ccc4c3)n2)cc1F [compound 23, 4-(1H-pyrrolo[2,3-b]pyridin-5-yl)-N-(3-fluoro-4-((1S,4S)-5-methyl-2,5-diazabicyclo[2.2.1]heptan-2-yl)phenyl)pyrimidin-2-amine]",< 1 µM
20,"CCN1C[C@@H]2C[C@H]1CN2c1ccc(Nc2nccc(-c3ccc(N(C)C)nc3)n2)cc1C [compound 24, 4-(6-(dimethylamino)pyridin-3-yl)-N-(3-methyl-4-((1S,4S)-5-ethyl-2,5-diazabicyclo[2.2.1]heptan-2-yl)phenyl)pyrimidin-2-amine]",< 1 µM
21,"CCN1C[C@@H]2C[C@H]1CN2c1ccc(Nc2nccc(-c3ccc(N4CCOCC4)nc3)n2)cc1C [compound 25, 4-(6-(morpholin-4-yl)pyridin-3-yl)-N-(3-methyl-4-((1S,4S)-5-ethyl-2,5-diazabicyclo[2.2.1]heptan-2-yl)phenyl)pyrimidin-2-amine]",< 1 µM
22,"CCNC(=O)N1C[C@@H]2C[C@H]1CN2c1ccc(Nc2nccc(-c3ccc(N4CCOCC4)nc3)n2)cc1C [compound 26, 4-(6-(morpholin-4-yl)pyridin-3-yl)-N-(3-methyl-4-((1S,4S)-5-((ethylamino)carbonyl)-2,5-diazabicyclo[2.2.1]heptan-2-yl)phenyl)pyrimidin-2-amine]",< 1 µM
23,"Cc1cc(Nc2nccc(-c3cnc4c(c3)OC(C)(C)C(=O)N4)n2)ccc1N1C[C@@H]2C[C@H]1CO2 [compound 27, 4-(2,2-dimethyl-3-oxo-3,4-dihydro-2H-pyrido[3,2-b][1,4]oxazin-7-yl)-N-(3-methyl-4-((1S,4S)-5-oxa-2-azabicyclo[2.2.1]heptan-2-yl)phenyl)pyrimidin-2-amine]",< 1 µM
24,"CCC(=O)N1C[C@@H]2C[C@H]1CN2c1ccc(Nc2nccc(-c3cnc4c(c3)OC(C)(C)C(=O)N4)n2)cc1C [compound 28, 4-(2,2-dimethyl-3-oxo-3,4-dihydro-2H-pyrido[3,2-b][1,4]oxazin-7-yl)-N-(3-methyl-4-((1S,4S)-5-(ethylcarbonyl)-2,5-diazabicyclo[2.2.1]heptan-2-yl)phenyl)pyrimidin-2-amine]",< 1 µM
25,"Cc1cc(Nc2nccc(-c3cnc4c(c3)OC(C)(C)C(=O)N4)n2)ccc1N1C[C@@H]2C[C@H]1CN2S(C)(=O)=O [compound 29, 4-(2,2-dimethyl-3-oxo-3,4-dihydro-2H-pyrido[3,2-b][1,4]oxazin-7-yl)-N-(3-methyl-4-((1S,4S)-5-(methylsulfonyl)-2,5-diazabicyclo[2.2.1]heptan-2-yl)phenyl)pyrimidin-2-amine]",< 1 µM

# Source: patent US9624229B2, “Pyrimidine-2-amine compounds and their use as inhibitors of JAK kinases” (Rigel Pharmaceuticals, Inc., priority 2008, dated 2017)
